Results: ChEMBL document CHEMBL1129193, “Isosteres of nucleoside triphosphates” (Bioorg Med Chem Lett, 1996)

Columns and labels:
[1] = test system: CCRF-CEM; assay: Concentration of compound required to reduce viability of CEM/0 cells by 50%.; assay type: functional; details: Homo sapiens
[2] = test system: C8166; assay: Concentration of compound required to reduce viability of C8166 cells by 50%.; assay type: functional; details: Homo sapiens
[3] = test system: C8166; assay: Compound was evaluated for anti-HIV activity against HIV-1 infected C8166 cell lines; assay type: functional, cell-based; details: Homo sapiens
[4] = test system: CCRF-CEM; assay: Compound was evaluated for anti-HIV activity against HIV-1 infected CEM/0 cell lines.; assay type: functional, cell-based; details: Homo sapiens
[5] = test system: CEM-TK(-); assay: Compound was evaluated for anti-HIV activity against HIV-2 infected CEM/TK- cell lines.; details: Homo sapiens
[6] = test system: CCRF-CEM; assay: Compound was evaluated for anti-HIV activity against HIV-2 infected CEM/0 cell lines.; assay type: functional, cell-based; details: Homo sapiens
[7] = biological target: Human immunodeficiency virus type 1 reverse transcriptase (Human immunodeficiency virus 1, UniProt Q72547); assay: Inhibition of HIV-1 reverse transcriptase.
[8] = organism: Homo sapiens; assay: Compound was evaluated for anti-HIV activity against HIV-2 infected CEM/TK- cell lines.; assay type: functional, organism-based

| Structure (SMILES) | CC50 [1] [µM] | CC50 [2] [µM] | EC50 [3] [µM] | EC50 [4] [µM] | EC50 [5] [µM] | EC50 [6] [µM] | IC50 [7] [µM] | EC50 [8] [µM] |
| --- | --- | --- | --- | --- | --- | --- | --- | --- |
| Cc1cn(C2C=CC(COC(=O)CC(O)(CC(=O)OCc3ccccc3)C(=O)OCc3ccccc3)O2)c(=O)[nH]c1=O (centres undefined) | 64 | 500 | 1.6 | 1.6 | 87 | 0.55 | > 100 | – |
| Cc1cn(C2C=CC(COC(=O)CC(O)(CC(=O)O)C(=O)O)O2)c(=O)[nH]c1=O (centres undefined) | 209 | 500 | 3.2 | 4 | – | 4 | > 100 | > 250 |
| Cc1cn(C2C=CC(CNC(=O)CC(O)(CC(=O)O)C(=O)O)O2)c(=O)[nH]c1=O (centres undefined) | – | > 2500 | > 2500 | – | – | – | > 100 | – |
| C=CCOC(=O)CC(O)(CC(=O)NCC1C=CC(n2cc(C)c(=O)[nH]c2=O)O1)C(=O)OCC=C (centres undefined) | > 250 | > 1000 | 400 | > 250 | – | > 250 | > 100 | – |
| COC(=O)CC(O)(CC(=O)NCC1C=CC(n2cc(C)c(=O)[nH]c2=O)O1)C(=O)OC (centres undefined) | > 250 | > 1000 | 1000 | > 250 | – | > 250 | > 100 | – |
| COC(=O)CC1(CC(=O)OCC2C=CC(n3cc(C)c(=O)[nH]c3=O)O2)OCOC1=O (centres undefined) | 100 | 400 | 0.8 | 0.95 | 110 | 2.5 | > 100 | – |
| C=CCOC(=O)CC(O)(CC(=O)OCC1C=CC(n2cc(C)c(=O)[nH]c2=O)O1)C(=O)OCC=C (centres undefined) | 69 | 500 | 1 | 0.7 | 72 | 0.55 | > 100 | – |
| Cc1cn(C2C=CC(COC(=O)CC3(CC(=O)O)OCOC3=O)O2)c(=O)[nH]c1=O (centres undefined) | > 250 | 1000 | 4 | 3.47 | > 250 | 4.5 | > 100 | – |
| C=CCOC(=O)CC1(CC(=O)OCC2C=CC(n3cc(C)c(=O)[nH]c3=O)O2)OCOC1=O (centres undefined) | 179 | 500 | 0.8 | 2 | 78 | 1.6 | > 100 | – |
| Cc1cn(C2C=CC(COC(=O)CC3(CC(=O)OCc4ccccc4)OCOC3=O)O2)c(=O)[nH]c1=O (centres undefined) | 92.8 | 400 | 8 | 1.35 | > 250 | 3 | – | – |
| Cc1cn([C@H]2C[C@H](N=[N+]=[N-])[C@@H](CO)O2)c(=O)[nH]c1=O [ZIDOVUDINE] | > 250 | > 1000 | 0.016 | – | > 250 | 0.006 | > 100 | – |
